This passage reports IC50 results from US12226424B2, “Target protein degradation compounds, their anti-tumor use, their intermediates and use of intermediates” (ShanghaiTech University, priority 2018, dated 2025).

The structures appear in SMILES notation.

The first assay concerns SR cells. In words: Half inhibitory concentration (IC50) on ALK-positive SR cell proliferation (CCK-8). It is filed as cell-based. Particulars: Homo sapiens, SR, 72 h, read-out: IC50 (nM)/ SR cell line. As to the method:
ALK-positive SR cells (human large cell immunoblastic lymphoma) were purchased from the American Type Culture Collection (ATCC); H3122 cells (human non-small cell lung cancer) were from the Shanghai University of Science and Technology Lin Haifan's research group.
The cells used in this present disclosure were cultured in a 37° C. incubator containing 5% CO2.
SR cells were seeded in 100 μL RPMI1640 complete medium at a density of 10,000 cells/well. 100 μL of the inoculated cells were treated with 0.5 μL diluted PROTAD compound of the present disclosure to be tested at 10 successively decreasing concentrations (starting at the highest concentration of 10 μM; 5-fold serial dilutions) After the cells were treated with the drug for 72 h, cell viability was determined according to the CCK-8 reagent operating instructions. The negative control was DMSO, and the positive control was a commercial inhibitor. After CCK-8 treatment for 2 h, the value of O.D.450 was measured using a microplate reader.
Turning to `CCc1cc2c(cc1N1CCC(NC(=O)CCCSc3cccc4c3C(=O)N(C3CCC(=O)NC3=O)C4=O)CC1)C(C)(C)c1[nH]c3cc(C#N)ccc3c1C2=O` (centres unmarked) [SIAIS219013, N-(1-(3-cyano-9-ethyl-6,6-dimethyl-11-oxo-6,11-dihydro-5H-benzo[b]carbazol-8-yl)piperidin-4-yl)-4-((2-(2,6-dioxopiperidin-3-yl)-1,3-dioxoisoindolin-4-yl)thio)butanamide], the IC50 stood at 143 nM.

The same assay, now with this note: Homo sapiens; SR cells, 72 h, CCK-8; read-out: IC50 on proliferation of ALK-positive cells SR.
On to `COc1cc(N2CCC(N3CCN(C)CC3)CC2)ccc1Nc1ncc(Cl)c(Nc2ccccc2P(C)(C)=O)n1` [Brigatinib, reference compound], for which the IC50 turned out to be 10.6 nM.

Staying with this assay, now noted: Homo sapiens; SR cells, 72 h drug treatment, CCK-8; read-out: IC50 (nM)/ SR cell line.
With `COc1cc(N2CCC(N3CCN(C)CC3)CC2)ccc1Nc1ncc(Cl)c(Nc2ccccc2P(C)(C)=O)n1` [Brigatinib, reference compound], the IC50 is 2.1 ± 1.2 nM.
In the case of `CCc1cc2c(cc1N1CCN(C3CCN(C(=O)CSc4cccc5c4C(=O)N(C4CCC(=O)NC4=O)C5=O)CC3)CC1)C(C)(C)c1[nH]c3cc(C#N)ccc3c1C2=O` (centres unmarked) [SIAIS219005, 8-(4-(1-(2-((2-(2,6-dioxopiperidin-3-yl)-1,3-dioxoisoindolin-4-yl)thio)acetyl)piperidin-4-yl)piperazin-1-yl)-9-ethyl-6,6-dimethyl-11-oxo-6,11-dihydro-5H-benzo[b]carbazole-3-carbonitrile], the IC50 is 8.7 nM.
`CCc1cc2c(cc1N1CCC(N3CCN(C(=O)CCCSc4cccc5c4C(=O)N(C4CCC(=O)NC4=O)C5=O)CC3)CC1)C(C)(C)c1[nH]c3cc(C#N)ccc3c1C2=O` (centres unmarked) [SIAIS219006, 8-(4-(4-(4-((2-(2,6-dioxopiperidin-3-yl)-1,3-dioxoisoindolin-4-yl)thio)butanoyl)piperazin-1-yl)piperidin-1-yl)-9-ethyl-6,6-dimethyl-11-oxo-6,11-dihydro-5H-benzo[b]carbazole-3-carbonitrile]: the IC50 was found to be 16.4 nM.
Still for that read-out and setting: then `CCc1cc2c(cc1N1CCC(N3CCN(C(=O)CCCCCSc4cccc5c4C(=O)N(C4CCC(=O)NC4=O)C5=O)CC3)CC1)C(C)(C)c1[nH]c3cc(C#N)ccc3c1C2=O` (centres unmarked) [SIAIS219007, 8-(4-(4-(6-((2-(2,6-dioxopiperidin-3-yl)-1,3-dioxoisoindolin-4-yl)thio)hexanoyl)piperazin-1-yl)piperidin-1-yl)-9-ethyl-6,6-dimethyl-11-oxo-6,11-dihydro-5H-benzo[b]carbazole-3-carbonitrile], with 50.1 nM.
Turning to `CCc1cc2c(cc1N1CCC(NC(=O)CSc3cccc4c3C(=O)N(C3CCC(=O)NC3=O)C4=O)CC1)C(C)(C)c1[nH]c3cc(C#N)ccc3c1C2=O` (centres unmarked) [SIAIS219012, N-(1-(3-cyano-9-ethyl-6,6-dimethyl-11-oxo-6,11-dihydro-5H-benzo[b]carbazol-8-yl)piperidin-4-yl)-2-((2-(2,6-dioxopiperidin-3-yl)-1,3-dioxoisoindolin-4-yl)thio)acetamide], the IC50 stood at 146 nM.
The same measure, in the same setting: then `CCc1cc2c(cc1N1CCC(NC(=O)CCCCCSc3cccc4c3C(=O)N(C3CCC(=O)NC3=O)C4=O)CC1)C(C)(C)c1[nH]c3cc(C#N)ccc3c1C2=O` (centres unmarked) [SIAIS219014, N-(1-(3-cyano-9-ethyl-6,6-dimethyl-11-oxo-6,11-dihydro-5H-benzo[b]carbazol-8-yl)piperidin-4-yl)-6-((2-(2,6-dioxopiperidin-3-yl)-1,3-dioxoisoindolin-4-yl)thio)hexanamide], with 101 nM; and `CCc1cc2c(cc1N1CCC(NC(=O)COCCOCCSc3cccc4c3C(=O)N(C3CCC(=O)NC3=O)C4=O)CC1)C(C)(C)c1[nH]c3cc(C#N)ccc3c1C2=O` (centres unmarked) [SIAIS219022, N-(1-(3-cyano-9-ethyl-6,6-dimethyl-11-oxo-6,11-dihydro-5H-benzo[b]carbazol-8-yl)piperidin-4-yl)-2-(2-(2-((2-(2,6-dioxopiperidin-3-yl)-1,3-dioxoisoindolin-4-yl)thio)ethoxy)ethoxy)acetamide], with 80.5 nM.
The same measure, in the same setting: then `COc1cc(N2CCC(NC(=O)CSc3cccc4c3CN(C3CCC(=O)NC3=O)C4=O)CC2)ccc1Nc1ncc(Cl)c(Nc2ccccc2P(C)(C)=O)n1` (centres unmarked) [SIAIS219133, N-(1-(4-((5-chloro-4-((2-(dimethylphosphoryl)phenyl)amino)pyrimidin-2-yl)amino)-3-methoxyphenyl)piperidin-4-yl)-2-((2-(2,6-dioxopiperidin-3-yl)-1-oxoisoindolin-4-yl)thio)acetamide], with 2.9 ± 0.1 nM; and `COc1cc(N2CCC(NC(=O)CCSc3cccc4c3CN(C3CCC(=O)NC3=O)C4=O)CC2)ccc1Nc1ncc(Cl)c(Nc2ccccc2P(C)(C)=O)n1` (centres unmarked) [SIAIS219134, N-(1-(4-((5-chloro-4-((2-(dimethylphosphoryl)phenyl)amino)pyrimidin-2-yl)amino)-3-methoxyphenyl)piperidin-4-yl)-3-((2-(2,6-dioxopiperidin-3-yl)-1-oxoisoindolin-4-yl)thio)propanamide], with 2.7 ± 0.8 nM; and `COc1cc(N2CCC(NC(=O)CCCSc3cccc4c3CN(C3CCC(=O)NC3=O)C4=O)CC2)ccc1Nc1ncc(Cl)c(Nc2ccccc2P(C)(C)=O)n1` (centres unmarked) [SIAIS219135, N-(1-(4-((5-chloro-4-((2-(dimethylphosphoryl)phenyl)amino)pyrimidin-2-yl)amino)-3-methoxyphenyl)piperidin-4-yl)-4-((2-(2,6-dioxopiperidin-3-yl)-1-oxoisoindolin-4-yl)thio)butanamide], with 0.33 ± 0.02 nM.
For `COc1cc(N2CCC(NC(=O)CCCCSc3cccc4c3CN(C3CCC(=O)NC3=O)C4=O)CC2)ccc1Nc1ncc(Cl)c(Nc2ccccc2P(C)(C)=O)n1` (centres unmarked) [SIAIS219136, N-(1-(4-((5-chloro-4-((2-(dimethylphosphoryl)phenyl)amino)pyrimidin-2-yl)amino)-3-methoxyphenyl)piperidin-4-yl)-5-((2-(2,6-dioxopiperidin-3-yl)-1-oxoisoindolin-4-yl)thio)pentanamide], the IC50 amounted to 0.43 ± 0.09 nM.
The same measure, in the same setting: then `COc1cc(N2CCC(NC(=O)CCCCCSc3cccc4c3CN(C3CCC(=O)NC3=O)C4=O)CC2)ccc1Nc1ncc(Cl)c(Nc2ccccc2P(C)(C)=O)n1` (centres unmarked) [SIAIS219137, N-(1-(4-((5-chloro-4-((2-(dimethylphosphoryl)phenyl)amino)pyrimidin-2-yl)amino)-3-methoxyphenyl)piperidin-4-yl)-6-((2-(2,6-dioxopiperidin-3-yl)-1-oxoisoindolin-4-yl)thio)hexanamide], with 0.48 ± 0.05 nM; and `COc1cc(N2CCC(NC(=O)CCCCCCSc3cccc4c3CN(C3CCC(=O)NC3=O)C4=O)CC2)ccc1Nc1ncc(Cl)c(Nc2ccccc2P(C)(C)=O)n1` (centres unmarked) [SIAIS219138, N-(1-(4-((5-chloro-4-((2-(dimethylphosphoryl)phenyl)amino)pyrimidin-2-yl)amino)-3-methoxyphenyl)piperidin-4-yl)-7-((2-(2,6-dioxopiperidin-3-yl)-1-oxoisoindolin-4-yl)thio)heptanamide], with 0.29 ± 0.01 nM; and `COc1cc(N2CCC(NC(=O)COCCSc3cccc4c3CN(C3CCC(=O)NC3=O)C4=O)CC2)ccc1Nc1ncc(Cl)c(Nc2ccccc2P(C)(C)=O)n1` (centres unmarked) [SIAIS219139, N-(1-(4-((5-chloro-4-((2-(dimethylphosphoryl)phenyl)amino)pyrimidin-2-yl)amino)-3-methoxyphenyl)piperidin-4-yl)-2-(2-((2-(2,6-dioxopiperidin-3-yl)-1-oxoisoindolin-4-yl)thio)ethoxy)acetamide], with 1.08 ± 0.1 nM.
As to `COc1cc(N2CCC(NC(=O)COCCOCCSc3cccc4c3CN(C3CCC(=O)NC3=O)C4=O)CC2)ccc1Nc1ncc(Cl)c(Nc2ccccc2P(C)(C)=O)n1` (centres unmarked) [SIAIS219140, N-(1-(4-((5-chloro-4-((2-(dimethylphosphoryl)phenyl)amino)pyrimidin-2-yl)amino)-3-methoxyphenyl)piperidin-4-yl)-2-(2-(2-((2-(2,6-dioxopiperidin-3-yl)-1-oxoisoindolin-4-yl)thio)ethoxy)ethoxy)acetamide], the IC50 was 5.08 ± 0.62 nM.
`COc1cc(N2CCC(NC(=O)COCCOCCOCCSc3cccc4c3CN(C3CCC(=O)NC3=O)C4=O)CC2)ccc1Nc1ncc(Cl)c(Nc2ccccc2P(C)(C)=O)n1` (centres unmarked) [SIAIS219141, N-(1-(4-((5-chloro-4-((2-(dimethylphosphoryl)phenyl)amino)pyrimidin-2-yl)amino)-3-methoxyphenyl)piperidin-4-yl)-2-(2-(2-(2-((2-(2,6-dioxopiperidin-3-yl)-1-oxoisoindolin-4-yl)thio)ethoxy)ethoxy)ethoxy)acetamide]: the IC50 is 5 ± 0.71 nM.
As for `COc1cc(N2CCC(NC(=O)COCCOCCOCCOCCSc3cccc4c3CN(C3CCC(=O)NC3=O)C4=O)CC2)ccc1Nc1ncc(Cl)c(Nc2ccccc2P(C)(C)=O)n1` (centres unmarked) [SIAIS219142, N-(1-(4-((5-chloro-4-((2-(dimethylphosphoryl)phenyl)amino)pyrimidin-2-yl)amino)-3-methoxyphenyl)piperidin-4-yl)-14-((2-(2,6-dioxopiperidin-3-yl)-1-oxoisoindolin-4-yl)thio)-3,6,9,12-tetraoxatetradecan-1-amide], the IC50 stood at 7 ± 1 nM.
On the same count and under the same terms, the same measure for `COc1cc(N2CCC(NC(=O)COCCOCCOCCOCCOCCSc3cccc4c3CN(C3CCC(=O)NC3=O)C4=O)CC2)ccc1Nc1ncc(Cl)c(Nc2ccccc2P(C)(C)=O)n1` (centres unmarked) [SIAIS219143, N-(1-(4-((5-chloro-4-((2-(dimethylphosphoryl)phenyl)amino)pyrimidin-2-yl)amino)-3-methoxyphenyl)piperidin-4-yl)-17-((2-(2,6-dioxopiperidin-3-yl)-1-oxoisoindolin-4-yl)thio)-3,6,9,12,15-pentaoxaheptadecan-1-amide]: 5.53 ± 1.28 nM.
